In PubChem BioAssay AID1963450 (Molecular Pharmacology Branch, DTP, NCI, 2024):
Where “and” joins values, the source holds several entries; their conditions need not be identical. Identical values can stand only once.

System: 556581-035-R-J1-PDC complex spheroid growth
Test: Anticancer human tumor 556581-035-R-J1-PDC patient-derived ovarian carcinoma cell line growth inhibition [Asc]
Conditions: for viability, T/C: stronger effect = lower value
Procedure, shortened: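 Stromal components (HUVEC and hMSC) are co-assembled with the cancer cells into multicellular spheroids. Drugs are then added singly or paired, at concentrations falling by half-log increments from a clinically achievable maximum, capped at 10 microM without known Cmax.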

[1] = curve of first compound, second compound 0.03 µM
[2] = curve of first compound, second compound 0.0949 µM
[3] = curve of first compound, second compound 0.3 µM
[4] = curve of first compound, second compound 0.949 µM
[5] = curve of first compound, second compound 3 µM
[6] = second compound 0.03 µM, first compound 0.0316 µM
[7] = second compound 0.03 µM, first compound 0.1 µM
[8] = second compound 0.03 µM, first compound 0.316 µM
[9] = second compound 0.03 µM, first compound 1 µM
[10] = second compound 0.0949 µM, first compound 0.0316 µM
[11] = second compound 0.0949 µM, first compound 0.1 µM
[12] = second compound 0.0949 µM, first compound 0.316 µM
[13] = second compound 0.0949 µM, first compound 1 µM
[14] = second compound 0.3 µM, first compound 0.0316 µM
[15] = second compound 0.3 µM, first compound 0.1 µM
[16] = second compound 0.3 µM, first compound 0.316 µM
[17] = second compound 0.3 µM, first compound 1 µM
[18] = second compound 0.949 µM, first compound 0.0316 µM
[19] = second compound 0.949 µM, first compound 0.1 µM
[20] = second compound 0.949 µM, first compound 0.316 µM
[21] = second compound 0.949 µM, first compound 1 µM
[22] = second compound 3 µM, first compound 0.0316 µM
[23] = second compound 3 µM, first compound 0.1 µM
[24] = second compound 3 µM, first compound 0.316 µM
[25] = second compound 3 µM, first compound 1 µM
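Note: spheroids exposed to agents for 7 days before viability read.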

SMILES: C=CC(=O)N1CCN(c2nc(=O)n(-c3c(C)ccnc3C(C)C)c3nc(-c4c(O)cccc4F)c(F)cc23)C(C)C1 (configuration not stated) + CCN1C(C(=O)NC23CCC(C(=O)O)(CC2)CC3)C(c2cccc(Cl)c2F)C2(C(=O)Nc3cc(Cl)ccc32)C12CCCCC2
- IC50 [1]: > 10000 nM
- IC50 [2]: > 10000 nM
- IC50 [3]: > 10000 nM
- IC50 [4]: > 10000 nM
- IC50 [5]: > 10000 nM
- viability, T/C [6]: 96.1%
- viability, T/C [7]: 98.7%
- viability, T/C [8]: 95.1%
- viability, T/C [9]: 102%
- viability, T/C (second compound 0.03 µM, first compound 3.16 µM): 94.3%
- viability, T/C (second compound 0.03 µM, first compound 10 µM): 94.4%
- viability, T/C [10]: 102%
- viability, T/C [11]: 99.1%
- viability, T/C [12]: 104%
- viability, T/C [13]: 88%
- viability, T/C (second compound 0.0949 µM, first compound 3.16 µM): 117%
- viability, T/C (second compound 0.0949 µM, first compound 10 µM): 99.4%
- viability, T/C [14]: 102%
- viability, T/C [15]: 103%
- viability, T/C [16]: 101%
- viability, T/C [17]: 86.6%
- viability, T/C (second compound 0.3 µM, first compound 3.16 µM): 116%
- viability, T/C (second compound 0.3 µM, first compound 10 µM): 103%
- viability, T/C [18]: 113%
- viability, T/C [19]: 95.6%
- viability, T/C [20]: 119%
- viability, T/C [21]: 115%
- viability, T/C (second compound 0.949 µM, first compound 3.16 µM): 109%
- viability, T/C (second compound 0.949 µM, first compound 10 µM): 103%
- viability, T/C [22]: 93.2%
- viability, T/C [23]: 87.5%
- viability, T/C [24]: 96%
- viability, T/C [25]: 96.5%
- viability, T/C (second compound 3 µM, first compound 3.16 µM): 103%
- viability, T/C (second compound 3 µM, first compound 10 µM): 84.8%

SMILES: NC1CCC(NC2CC2c2ccccc2)CC1 (configuration not stated) + CNC(C)C(=O)NC1CN(S(=O)(=O)c2cccc(S(=O)(=O)N3CCC4CCC(C(=O)NC(c5ccccc5)c5ccccc5)N4C(=O)C(NC(=O)C(C)NC)C3)c2)CCC2CCC(C(=O)NC(c3ccccc3)c3ccccc3)N2C1=O
- IC50 (curve of first compound, second compound 0.01 µM): > 100 nM
- IC50 (curve of first compound, second compound 0.0316 µM): > 100 nM
- IC50 (curve of first compound, second compound 0.1 µM): > 100 nM
- IC50 (curve of first compound, second compound 0.316 µM): > 100 nM
- IC50 (curve of first compound, second compound 1 µM): > 100 nM
- viability, T/C (second compound 0.01 µM, first compound 0.000316 µM): 90.1%
- viability, T/C (second compound 0.01 µM, first compound 0.001 µM): 93.5%
- viability, T/C (second compound 0.01 µM, first compound 0.00316 µM): 86.5%
- viability, T/C (second compound 0.01 µM, first compound 0.01 µM): 92.9%
- viability, T/C (second compound 0.01 µM, first compound 0.0316 µM): 95.8%
- viability, T/C (second compound 0.01 µM, first compound 0.1 µM): 86.8%
- viability, T/C (second compound 0.0316 µM, first compound 0.000316 µM): 86.3%
- viability, T/C (second compound 0.0316 µM, first compound 0.001 µM): 83.8%
- viability, T/C (second compound 0.0316 µM, first compound 0.00316 µM): 87.4%
- viability, T/C (second compound 0.0316 µM, first compound 0.01 µM): 72%
- viability, T/C (second compound 0.0316 µM, first compound 0.0316 µM): 80.2%
- viability, T/C (second compound 0.0316 µM, first compound 0.1 µM): 86.1%
- viability, T/C (second compound 0.1 µM, first compound 0.000316 µM): 86.1%
- viability, T/C (second compound 0.1 µM, first compound 0.001 µM): 87.5%
- viability, T/C (second compound 0.1 µM, first compound 0.00316 µM): 75.1%
- viability, T/C (second compound 0.1 µM, first compound 0.01 µM): 64.5%
- viability, T/C (second compound 0.1 µM, first compound 0.0316 µM): 80.5%
- viability, T/C (second compound 0.1 µM, first compound 0.1 µM): 86%
- viability, T/C (second compound 0.316 µM, first compound 0.000316 µM): 75.2%
- viability, T/C (second compound 0.316 µM, first compound 0.001 µM): 73.1%
- viability, T/C (second compound 0.316 µM, first compound 0.00316 µM): 73%
- viability, T/C (second compound 0.316 µM, first compound 0.01 µM): 71.9%
- viability, T/C (second compound 0.316 µM, first compound 0.0316 µM): 77.3%
- viability, T/C (second compound 0.316 µM, first compound 0.1 µM): 64.2%
- viability, T/C (second compound 1 µM, first compound 0.000316 µM): 66.8%
- viability, T/C (second compound 1 µM, first compound 0.001 µM): 73%
- viability, T/C (second compound 1 µM, first compound 0.00316 µM): 73.1%
- viability, T/C (second compound 1 µM, first compound 0.01 µM): 63.4%
- viability, T/C (second compound 1 µM, first compound 0.0316 µM): 67.6%
- viability, T/C (second compound 1 µM, first compound 0.1 µM): 71.4%

SMILES: O=C(c1cc(Cc2n[nH]c(=O)c3ccccc23)ccc1F)N1CCN(C(=O)C2CC2)CC1
- viability, T/C (compound 0.0316 µM): 102% and 112% and 91.3%
- viability, T/C (compound 0.1 µM): 107% and 101% and 99.2%
- viability, T/C (compound 0.316 µM): 106% (2×) and 60%
- viability, T/C (compound 1 µM): 95.7% and 85.4% and 88.8%
- viability, T/C (compound 3.16 µM): 106% and 98.3% and 72.7%
- viability, T/C (compound 10 µM): 81.1% and 83.3% and 78.6%
- IC50 (curve of compound): > 10000 nM

SMILES: O=C(c1ccc(F)c(F)c1Nc1ccc(I)cc1F)N1CC(O)([C@@H]2CCCCN2)C1 + CCN1C(C(=O)NC23CCC(C(=O)O)(CC2)CC3)C(c2cccc(Cl)c2F)C2(C(=O)Nc3cc(Cl)ccc32)C12CCCCC2
- IC50 [1]: 209 nM
- IC50 [2]: 208 nM
- IC50 [3]: 181 nM
- IC50 [4]: 188 nM
- IC50 [5]: 92.1 nM
- viability, T/C (second compound 0.03 µM, first compound 0.00316 µM): 118%
- viability, T/C (second compound 0.03 µM, first compound 0.01 µM): 99.4%
- viability, T/C [6]: 97.7%
- viability, T/C [7]: 72.9%
- viability, T/C [8]: 35.9%
- viability, T/C [9]: 10.6%
- viability, T/C (second compound 0.0949 µM, first compound 0.00316 µM): 108%
- viability, T/C (second compound 0.0949 µM, first compound 0.01 µM): 114%
- viability, T/C [10]: 95.8%
- viability, T/C [11]: 85.9%
- viability, T/C [12]: 29.6%
- viability, T/C [13]: 10.4%
- viability, T/C (second compound 0.3 µM, first compound 0.00316 µM): 106%
- viability, T/C (second compound 0.3 µM, first compound 0.01 µM): 104%
- viability, T/C [14]: 127%
- viability, T/C [15]: 73.5%
- viability, T/C [16]: 29.8%
- viability, T/C [17]: 9.99%
- viability, T/C (second compound 0.949 µM, first compound 0.00316 µM): 99.1%
- viability, T/C (second compound 0.949 µM, first compound 0.01 µM): 119%
- viability, T/C [18]: 100%
- viability, T/C [19]: 78.1%
- viability, T/C [20]: 26.8%
- viability, T/C [21]: 12.4%
- viability, T/C (second compound 3 µM, first compound 0.00316 µM): 99.9%
- viability, T/C (second compound 3 µM, first compound 0.01 µM): 97.3%
- viability, T/C [22]: 86.3%
- viability, T/C [23]: 47.3%
- viability, T/C [24]: 17.2%
- viability, T/C [25]: 11.4%
